These results are taken from patent US8575201B2 (Boehringer Ingelheim International GmbH, priority 2010, dated 2013).

One test relates to proteinuria. The settings on record: clinical trial, human glomerulonephritis; cited from earlier work.
In test [1] the test system is biomarkers for myocardial infarction risk. The settings on record: clinical trial; cited from earlier work.
Test [2] has as its system atherosclerotic plaque. As to conditions: infusion, treated for four weeks; cited from earlier work.
Test [3] has as its system atherosclerotic plaque. As to conditions: oral dosing, high-fat diet from 2 to 6 months of age; cited from earlier work.
Test [4] deals with synthesis of LTB4 in human whole blood. As to the kind of experiment: Human whole blood LTB4 production inhibition assay. The settings on record: calcimycin stimulated, read-out: hWB LTB4 IC50. The format is cell-based. The gist of the method: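 Heparinized human whole blood was preincubated with compound for 15 min at 37° C, then stimulated with calcimycin (20 μM final, in PBS pH 7.4) for a further 30 min at 37° C. Plasma LTB4 was quantified by antibody-based homogeneous time-resolved fluorescence.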

Test [5] concerns the target recombinant human FLAP protein (Homo sapiens (Human), UniProt P20292). Briefly: FLAP binding assay (Scintillation Proximity Assay, displacement of [125I]L-691,831). The settings on record: read-out: FLAP SPA IC50. The gist of the method:
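Scintillation proximity displacement of an iodinated (125I) FLAP inhibitor by test compounds, using 100,000×g membrane fraction from lysed cells. Final beads 200 μg/well and protein 5 μg/well; plates shaken 2 h before reading.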
A general note: Scintillation proximity formats need no separation of bound from free tracer.

Sequence of recombinant human FLAP protein (P20292 whole entry): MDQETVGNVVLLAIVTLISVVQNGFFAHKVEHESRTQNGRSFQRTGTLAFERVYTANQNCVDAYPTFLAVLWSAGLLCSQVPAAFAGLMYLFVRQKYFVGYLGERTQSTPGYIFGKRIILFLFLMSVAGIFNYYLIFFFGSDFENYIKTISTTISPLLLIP

Turning to `CC(C)(C)Sc1c(CC(C)(C)C(=O)O)n(Cc2ccc(Cl)cc2)c2ccc(OCc3ccc4ccccc4n3)cc12` [MK-591], in the test with proteinuria, the effect on proteinuria result is reported as “reduce proteinuria”. For the compound `O=C(O)[C@@H](c1ccc(OCc2ccc3ccccc3n2)cc1)C1CCCC1` [DG-031], the “effect on biomarkers for myocardial infarction risk” value in test [1] is given as “dose-dependent suppression of several biomarkers”. As for `CC(C)c1ccc2c(c1)c(SC(C)(C)C)c(CC(C)(C)C(=O)O)n2Cc1ccc(Cl)cc1` [MK-886], the “decrease in plaque area in the aortic root” value in the test on atherosclerotic plaque [2] is recorded as about 40%. Moreover, in the test with atherosclerotic plaque [3], the “decrease in plaque coverage in the aorta” value was 56% and the “decrease in plaque coverage in the aortic root” value is on record as 43%. For `Cc1cc(-c2nc(C3(c4ccc(-c5cnc(N)nc5)nc4)CCC3)no2)ccn1` [Example 101, 5-(5-{1-[5-(2-methylpyridin-4-yl)-1,2,4-oxadiazol-3-yl]cyclobutyl}pyridin-2-yl)pyrimidin-2-amine], the half-maximal inhibitory concentration (IC50) – broadly, the midpoint of a concentration-inhibition curve – in test [4] came out at 820 nM; in test [5] it was 24 nM. For `Nc1ncc(-c2ccc(C3(c4noc(-c5ccc(O)cc5)n4)CCC3)cn2)cn1` [Example 32, 4-(3-{1-[6-(2-aminopyrimidin-5-yl)pyridin-3-yl]cyclobutyl}-1,2,4-oxadiazol-5-yl)phenol], the IC50 in test [4] worked out at 140 nM; in test [5], 2.9 nM. In the case of `COC(=O)[C@@H]1CCCN1c1ccc(-c2nc(C3(c4ccc(-c5cnc(N)nc5)nc4)CCC3)no2)cn1` [Example 36, methyl 1-[5-(3-{1-[6-(2-aminopyrimidin-5-yl)pyridin-3-yl]cyclobutyl}-1,2,4-oxadiazol-5-yl)pyridin-2-yl]-L-prolinate], the values for the IC50 in test [4] and in test [5] were 1400 nM and 5.9 nM, respectively. Take `CS(=O)(=O)c1cccc(-c2nc(C3(c4ccc(-c5cnc(N)nc5)nc4)CCC3)no2)c1` [Example 11, 5-[5-(1-{5-[3-(methylsulfonyl)phenyl]-1,2,4-oxadiazol-3-yl}cyclobutyl)pyridin-2-yl]pyrimidin-2-amine]: the IC50 in test [4] stood at 2200 nM; in test [5] it was 78 nM.

Regarding `CC(C)(O)Cn1cc(-c2nc(C3(c4ccc(-c5ccc(N)nc5)nc4)CCC3)no2)cn1` [Example 153, 1-(4-{3-[1-(6′-amino-[2,3′]bipyridinyl-5-yl)-cyclobutyl]-[1,2,4]oxadiazol-5-yl}-pyrazol-1-yl)-2-methyl-propan-2-ol], the half-inhibitory concentration (IC50) is 190 nM in test [4] and 34 nM in test [5]. For `Cc1ccc(-c2nc(C3(c4ccc(-c5cnc(N)nc5)nc4)CCC3)no2)c(O)n1` [Example 97, 3-(3-{1-[6-(2-aminopyrimidin-5-yl)pyridin-3-yl]cyclobutyl}-1,2,4-oxadiazol-5-yl)-6-methylpyridin-2-ol] the same measures were over 5000 nM and 19 nM.

As to `CC(C)(C(N)=O)n1cc(-c2nc(C3(c4ccc(-c5cnc(N)nc5)nc4)CCC3)no2)cn1` [Example 149, 2-[4-(3-{1-[6-(2-amino-pyrimidin-5-yl)-pyridin-3-yl]-cyclobutyl}-[1,2,4]oxadiazol-5-yl)-pyrazol-1-yl]-isobutyramide], the IC50 in test [4] amounted to 430 nM; in test [5] it was 160 nM. Regarding `Nc1ncc(-c2ccc(C3(c4noc(-c5cscn5)n4)CCC3)cn2)cn1` [Example 23, 5-(5-{1-[5-(1,3-thiazol-4-yl)-1,2,4-oxadiazol-3-yl]cyclobutyl}pyridin-2-yl)pyrimidin-2-amine], the results for the IC50 in test [4] and in test [5] were 430 nM and 26 nM, respectively.

Regarding `NC(=O)CNc1ccc(-c2nc(C3(c4ccc(-c5cnc(N)nc5)nc4)CCC3)no2)cn1` [Example 2, N-2-[5-(3-{1-[6-(2-aminopyrimidin-5-yl)pyridin-3-yl]cyclobutyl}-1,2,4-oxadiazol-5-yl)pyridin-2-yl]glycinamide], the half-maximal inhibitory concentration (IC50) in test [4] was 740 nM; in test [5], 5 nM. For `Nc1ncc(-c2ccc(C3(c4noc(-c5ccc(NC6CC6)nc5)n4)CCC3)cn2)cn1` [Example 9, 5-[5-(1-{5-[6-(cyclopropylamino)pyridin-3-yl]-1,2,4-oxadiazol-3-yl}cyclobutyl)pyridin-2-yl]pyrimidin-2-amine] the same measures were 320 nM and 2.9 nM. For the compound `CN(C)c1ccc(-c2nc(C3(c4ccc(-c5cnc(N)nc5)nc4)CCC3)no2)cn1` [Example 110, 5-[5-(1-{5-[6-(dimethylamino)pyridin-3-yl]-1,2,4-oxadiazol-3-yl}cyclobutyl)pyridin-2-yl]pyrimidin-2-amine], the concentration for half-maximal inhibition (IC50) in test [4] is 310 nM; in test [5] it was 2.4 nM. As for `Nc1ccc(-c2ccc(C3(c4noc(-c5cnn(C6COC6)c5)n4)CCC3)cn2)cn1` [Example 152, 5-{1-[5-(1-oxetan-3-yl-1H-pyrazol-4-yl)-[1,2,4]oxadiazol-3-yl]-cyclobutyl}-[2,3′]bipyridinyl-6′-ylamine], the half-maximal inhibitory concentration (IC50) in test [4] turned out to be 100 nM; in test [5], 13 nM. With `Nc1ncc(-c2ccc(C3(c4noc(-c5ccc6nccn6c5)n4)CCC3)cn2)cn1` [Example 27, 5-(5-{1-[5-(imidazo[1,2-a]pyridin-6-yl)-1,2,4-oxadiazol-3-yl]cyclobutyl}pyridin-2-yl)pyrimidin-2-amine], the IC50 in test [4] was found to be 420 nM; in test [5] it was 12.4 nM. The corresponding values for `Cc1n[nH]c(C)c1-c1nc(C2(c3ccc(-c4cnc(N)nc4)nc3)CCC2)no1` [Example 103, 5-(5-{1-[5-(3,5-dimethyl-1H-pyrazol-4-yl)-1,2,4-oxadiazol-3-yl]cyclobutyl}pyridin-2-yl)pyrimidin-2-amine] are 1000 nM and 14 nM.

In the case of `Nc1ncc(-c2ccc(C3(c4noc(N5CCC(O)CC5)n4)CCC3)cn2)cn1` [Example 154, 1-(3-{1-[6-(2-Amino-pyrimidin-5-yl)-pyridin-3-yl]-cyclobutyl}-[1,2,4]oxadiazol-5-yl)-piperidin-4-ol], the 50% inhibitory concentration (IC50) in test [4] was 590 nM; in test [5] it was 170 nM. For `Cn1ccc(-c2nc(C3(c4ccc(-c5cnc(N)nc5)nc4)CCC3)no2)n1` [Example 127, 5-(5-{1-[5-(1-methyl-1H-pyrazol-3-yl)-1,2,4-oxadiazol-3-yl]cyclobutyl}pyridin-2-yl)pyrimidin-2-amine], the figures for the IC50 in test [4] and in test [5] were 640 nM and 40 nM, respectively. In the case of `CS(=O)(=O)N1CCN(c2ccc(-c3nc(C4(c5ccc(-c6cnc(N)nc6)nc5)CCC4)no3)cn2)CC1` [Example 50, 5-{5-[1-(5-{6-[4-(methylsulfonyl)piperazin-1-yl]pyridin-3-yl}-1,2,4-oxadiazol-3-yl)cyclobutyl]pyridin-2-yl}pyrimidin-2-amine], the half-inhibitory concentration (IC50) in test [4] stood at 150 nM; in test [5], 2.7 nM. For `Nc1ncc(-c2ccc(C3(c4noc(-c5ccc(N6CCNCC6)nc5)n4)CCC3)cn2)cn1` [Example 3, 5-[5-(1-{5-[6-(piperazin-1-yl)pyridin-3-yl]-1,2,4-oxadiazol-3-yl}cyclobutyl)pyridin-2-yl]pyrimidin-2-amine] the same measures were 150 nM and 2.7 nM. In the case of `CC(CO)n1cc(-c2nc(C3(c4ccc(-c5cnc(N)nc5)nc4)CCC3)no2)cn1` (stereo not drawn) [Example 29, 2-[4-(3-{1-[6-(2-aminopyrimidin-5-yl)pyridin-3-yl]cyclobutyl}-1,2,4-oxadiazol-5-yl)-1H-pyrazol-1-yl]propan-1-ol], the results for the half-maximal inhibitory concentration (IC50) in test [4] and in test [5] were 320 nM and 35 nM, respectively. In the case of `Nc1ncc(-c2ccc(C3(c4noc(-c5ccc(OCCO)nc5)n4)CCC3)cn2)cn1` [Example 22, 2-{[5-(3-{1-[6-(2-aminopyrimidin-5-yl)pyridin-3-yl]cyclobutyl}-1,2,4-oxadiazol-5-yl)pyridin-2-yl]oxy}ethanol], the 50% inhibitory concentration (IC50) in test [4] came out at 140 nM; in test [5] it was 2.5 nM. Take `Nc1ccc(-c2nc(C3(c4ccc(-c5cnc(N)nc5)nc4)CCC3)no2)cn1` [Example 111, 5-(5-{1-[5-(6-aminopyridin-3-yl)-1,2,4-oxadiazol-3-yl]cyclobutyl}pyridin-2-yl)pyrimidin-2-amine]: the figures for the IC50 in test [4] and in test [5] were 74 nM and 4.2 nM, respectively.

Turning to “5-(6-{1-[5-(3-methyl- 1H-pyrazol-4-yl)-1,2,4- oxadiazol-3- yl]cyclobutyl}pyridin-3- yl)pyrimidin-2-amine [Example 135]”, the results for the 50% inhibitory concentration (IC50) in test [4] and in test [5] were 400 nM and 27 nM, respectively. For `COCCn1cc(-c2nc(C3(c4ccc(-c5cnc(N)cn5)nc4)CCC3)no2)cn1` [Example 171, 5-[5-(1-{5-[1-(2-Methoxy-ethyl)-1H-pyrazol-4-yl]-[1,2,4]oxadiazol-3-yl}-cyclobutyl)-pyridin-2-yl]-pyrazin-2-ylamine] the same measures were 76 nM and 50 nM. For `CS(=O)(=O)Cn1cc(-c2nc(C3(c4ccc(-c5cnc(N)nc5)nc4)CCC3)no2)cn1` [Example 71, 5-{5-[1-(5-{1-[(methylsulfonyl)methyl]-1H-pyrazol-4-yl}-1,2,4-oxadiazol-3-yl)cyclobutyl]pyridin-2-yl}pyrimidin-2-amine] the same measures were 390 nM and 58 nM.

As to `CNc1ncc(-c2ccc(C3(c4noc(-c5cnn(CC(C)(C)O)c5)n4)CCC3)cn2)cn1` [Example 165, 2-Methyl-1-[4-(3-{1-[6-(2-methylamino-pyrimidin-5-yl)-pyridin-3-yl]-cyclobutyl}-[1,2,4]oxadiazol-5-yl)-pyrazol-1-yl]-propan-2-ol], the concentration for half-maximal inhibition (IC50) in test [4] is 280 nM; in test [5], 73 nM.

On to `CN(C)CCn1cc(-c2nc(C3(c4ccc(-c5cnc(N)nc5)nc4)CCC3)no2)cn1` [Example 142, 5-{5-[1-(5-{1-[2-(dimethylamino)ethyl]-1H-pyrazol-4-yl}-1,2,4-oxadiazol-3-yl)cyclobutyl]pyridin-2-yl}pyrimidin-2-amine], for which the IC50 in test [4] was found to be 250 nM; in test [5] it was 16 nM.
